Results from ChEMBL document CHEMBL2074005, “Use of the anionic dye carboxy-2',7'-dichlorofluorescein for sensitive flow cytometric detection of multidrug resistance-associated protein activity” (Int J Oncol, 1999).

Target: Multidrug resistance-associated protein 1 (Homo sapiens, UniProt P33527)
Assay: TP_TRANSPORTER: efflux in GLC4/sb30 cells
Type: functional, cell-based

Multidrug resistance-associated protein 1, sequence (P33527 whole entry): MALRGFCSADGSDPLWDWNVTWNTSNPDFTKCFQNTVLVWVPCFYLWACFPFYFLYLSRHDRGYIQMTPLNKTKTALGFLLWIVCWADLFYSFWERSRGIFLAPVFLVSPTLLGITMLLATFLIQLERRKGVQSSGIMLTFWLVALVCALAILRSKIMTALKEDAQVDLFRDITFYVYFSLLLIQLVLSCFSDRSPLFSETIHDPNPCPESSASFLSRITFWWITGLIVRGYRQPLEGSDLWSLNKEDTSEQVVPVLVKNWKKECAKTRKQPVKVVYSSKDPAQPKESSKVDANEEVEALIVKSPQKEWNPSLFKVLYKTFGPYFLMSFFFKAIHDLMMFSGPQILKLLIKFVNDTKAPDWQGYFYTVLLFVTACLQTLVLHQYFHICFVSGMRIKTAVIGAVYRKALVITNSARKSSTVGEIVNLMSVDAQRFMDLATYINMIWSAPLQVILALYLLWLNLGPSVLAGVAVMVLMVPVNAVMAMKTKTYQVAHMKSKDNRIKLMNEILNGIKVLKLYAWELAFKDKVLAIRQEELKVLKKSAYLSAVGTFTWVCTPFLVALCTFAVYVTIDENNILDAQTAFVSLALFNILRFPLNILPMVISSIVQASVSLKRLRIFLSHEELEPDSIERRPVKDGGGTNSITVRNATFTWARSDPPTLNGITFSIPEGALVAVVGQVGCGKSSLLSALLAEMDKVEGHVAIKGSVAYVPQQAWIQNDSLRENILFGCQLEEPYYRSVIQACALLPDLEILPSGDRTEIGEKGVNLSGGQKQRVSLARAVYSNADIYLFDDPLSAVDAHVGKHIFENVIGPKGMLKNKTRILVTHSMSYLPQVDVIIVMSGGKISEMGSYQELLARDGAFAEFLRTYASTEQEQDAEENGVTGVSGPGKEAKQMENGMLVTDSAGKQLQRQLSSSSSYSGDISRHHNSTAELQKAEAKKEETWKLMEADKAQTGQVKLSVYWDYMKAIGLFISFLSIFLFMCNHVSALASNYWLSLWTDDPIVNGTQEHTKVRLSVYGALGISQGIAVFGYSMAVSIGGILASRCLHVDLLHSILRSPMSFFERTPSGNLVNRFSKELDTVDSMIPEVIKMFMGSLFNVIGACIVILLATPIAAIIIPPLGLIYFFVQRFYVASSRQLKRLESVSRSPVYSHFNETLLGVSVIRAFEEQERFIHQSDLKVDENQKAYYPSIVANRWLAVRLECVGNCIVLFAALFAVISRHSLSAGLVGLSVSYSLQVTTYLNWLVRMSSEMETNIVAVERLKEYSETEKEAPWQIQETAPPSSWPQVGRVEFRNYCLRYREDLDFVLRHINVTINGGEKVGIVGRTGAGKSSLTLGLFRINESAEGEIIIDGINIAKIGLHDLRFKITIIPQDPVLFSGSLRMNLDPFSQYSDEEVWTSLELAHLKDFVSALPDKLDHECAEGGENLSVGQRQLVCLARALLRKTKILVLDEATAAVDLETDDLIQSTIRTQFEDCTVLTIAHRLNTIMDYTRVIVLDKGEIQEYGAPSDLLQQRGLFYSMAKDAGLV

Activity: substrate [+]
SMILES: O=C(O)c1ccc(C(=O)O)c(-c2c3cc(Cl)c(=O)cc-3oc3cc(O)c(Cl)cc23)c1.O=C(O)c1cccc(C(=O)O)c1-c1c2cc(Cl)c(=O)cc-2oc2cc(O)c(Cl)cc12
